Source: US20080125435A1, “1-(Het)aryl-3-[hetaryl-piperidin-4-yl]-thioureas as modulators of the EP2 receptor” (priority 2006, published 2008)

How the values were obtained:
[1] = system: cumulus-ovum complexes (cumulus expansion); experiment: Cumulus expansion test in vitro; format: cell-based, mice; settings: competing with natural EP2 receptor agonist PGE2
Description: In immature female mice (strain: CD1 (ICR) von Charles River), folliculogenesis is induced at an age of 14-18 days by a single administration (intraperitoneal) of 10 I.U. of PMSG (Pregnant Mare Serum Gonadotropin; Sigma G-4877, Lot 68H0909). 47-50 hours after the injection, the ovaries are removed and the cumulus-ovum complexes removed. At this stage, the cumulus complex is not yet expanded.
The cumulus-ovum complexes are now incubated for 20-24 hours with prostaglandin E2 (PGE2) (1 μM), vehicle control (ethanol) or test substances. Medium: alpha-MEM medium with 0.1 mM IBMX, pyruvate (0.23 mM) glutamine (2 mM), pen/strep 100 IU/ml pen. and 100 μg/ml strep.) and HSA (8 mg/ml)). The cumulus expansion is then assessed by classification into four stages (after Vanderhyden et al. Dev Biol. 1990 August; 140(2):307-317).

[2] = target: T1, EP2 subtype of the human PGE2 receptor (Homo sapiens, UniProt P43116); experiment: cAMP antagonism test (test for antagonism in the presence of PGE2); format: cell-based; settings: in presence of agonist PGE2
T1 construct: host or cells: cells in a cell culture plate
T1 sequence (P43116 whole entry): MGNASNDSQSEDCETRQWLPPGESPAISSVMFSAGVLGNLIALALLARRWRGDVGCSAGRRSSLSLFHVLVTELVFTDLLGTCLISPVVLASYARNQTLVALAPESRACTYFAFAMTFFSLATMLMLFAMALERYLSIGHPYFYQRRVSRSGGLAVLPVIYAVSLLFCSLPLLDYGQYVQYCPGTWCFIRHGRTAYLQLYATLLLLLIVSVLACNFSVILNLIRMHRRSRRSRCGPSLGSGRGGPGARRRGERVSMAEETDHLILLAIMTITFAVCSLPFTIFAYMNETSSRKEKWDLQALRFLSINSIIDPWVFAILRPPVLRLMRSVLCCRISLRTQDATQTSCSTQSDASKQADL
Text: (§1) The binding of PGE2 to the EP2 subtype of the human PGE2 receptor induces the activation of membrane adenylate cyclases and leads to the formation of cAMP. In the presence of the phosphodiesterase inhibitor IBMX, the cAMP accumulated through this stimulation and released by cell lysis is used in a competitive detection process. In this test, the cAMP in the lysate competes with cAMP-XL665 for the binding of an Eu cryptate-labeled anti-cAMP antibody. Here in the absence of cellular cAMP a maximal signal is produced, which is due to the coupling of this antibody to the cAMP-XL665 molecule. As a result, after excitation at 337 nm, a long-lasting emission signal at 665 nm (and at 620 nm) based on FRET (fluorescence resonance energy transfer) is produced. Both signals are measured in a suitable measuring instrument with time delay, i.e. after the background fluorescence has died away.
(§2) The substance solutions (0.75 μl) which contain 30% DMSO are placed in a test plate and are dissolved in 16 μl of a KRSB+IBMX stimulation solution (1× cancer Ringer bicarbonate buffer; Sigma-Aldrich # K-4002; including 750 μM 3-isobutyl-1-methylxanthine Sigma-Aldrich # 1-7018), then 15 μl of this are transferred into a media-free cell culture plate which has been washed with KRSB shortly beforehand.
After a 30-minute preincubation at room temperature (RT), 5 μl of a 4×PGE2 solution (11 nM) are added and incubated in the presence of the agonist for a further 60 mins at RT (volume: ˜20 μl), before the reaction is then stopped by addition of 5 μl of lysis buffer and the mixture is incubated for a further 20 mins at RT (volume: ˜25 μl). The cell lysate is then transferred onto an assay plate and assayed in accordance with the manufacturer's instructions (cyclic AMP kit Cisbio International # 62AMPPEC).

[3] = target: T1, EP2 subtype of the human PGE2 receptor; experiment: cellular agonism test (cAMP); format: cell-based
Text: as §1
as §2, with “μl)” for “μl) which contain 30% DMSO are”, “and 30% DMSO” for “and”, “beforehand. […]” for “beforehand.”

Row | SMILES | suppression of the expansion of the cumulus ([1]; at a concentration of 100-200 μM) | IC50 [2] | activity in the cellular agonism test [3] | suppression of cumulus expansion ([1]; at a 10 times lower concentration than AH 6809 (100-200 μM))
1 | CC(C)Oc1ccc2c(=O)c3cc(C(=O)O)ccc3oc2c1 [AH 6809, reference compound] | ca. 30% |  |  | 
2 | CSc1ccc(NC(=S)NC2CCN(c3ccnc4cc(Cl)ccc34)CC2)cc1 [Example 1, 1-[1-(7-chloro-quinolin-4-yl)-piperidin-4-yl]-3-(4-methylsulfanyl-phenyl)-thiourea] |  | 2.7 µM |  | 
3 | S=C(Nc1ccccc1Br)NC1CCN(c2ccnc3cc(Cl)ccc23)CC1 [Example 8, 1-(2-bromo-phenyl)-3-(1-(7-chloro-quinolin-4-yl)-piperidin-4-yl)-thiourea] |  | 3.8 µM | no inhibition | 20%
4 | CSc1ccccc1NC(=S)NC1CCN(c2ccnc3cc(Cl)ccc23)CC1 [Example 14, 1-(1-(7-chloro-quinolin-4-yl)-piperidin-4-yl)-3-(2-methylsulfanyl-phenyl)-thiourea] |  | 3.4 µM |  | 
